In brackets after ≈: the same amount, converted by molar mass.
Columns and labels:
[1] = Pharmacokinetic profile / oral bioavailability in male SD rats; assay type: in vivo; conditions: rat; for AUC(0-inf) / AUC(0-t) / Cmax / Tmax / half-life: plasma
Description: The pharmacokinetic profile of 3-fluoro-N-(4-(4-methyl-1-(thiazol-2-yl)-1,2,5,6-tetrahydro pyridin-3-yl)phenyl)isonicotinamide dihydrochloride was studied in male SD rats. Rats were bled at 5 min (IV only), 15 min, 30 min, 1 h, 2 h, 4 h, 6 h, 8 h and 24 h. Samples were prepared by mixing 50 μL of plasma, 5 μL, DMSO, and 250 μL of ACN, followed by shaking for 5 min, centrifuging at 4400 rpm for 15 min at 8° C. 225 μL of supernatant was vacuum dried, reconstituted with 180 μL of 20% ACN (10 mM NH4OAc), shaken for ˜2 min and transferred to 96MT plate. Samples were analyzed by HPLC, Phenomenex Onyx Monolithic C18, 4.6×100 mm column eluted with 30-95% ACN (10 mM NH4OAc) gradient. Detection was at 280 nm.

[2] = Solubility of salts (water solubility); assay type: physicochemical; conditions: for Water Solubility: salts of the parent compound
[3] = tested on: IL-2 production; experiment: Inhibition of IL-2 production in PHA-activated Jurkat cells (ELISA); assay type: cell-based; conditions: Homo sapiens, 20 h, PHA 2.5 μg/mL, 20 hours at 37° C., IL-2 ELISA
Description: Jurkat cells were placed in a 96 well plate (0.5 million cells per well in 1% FBS medium) then a test compound of this invention was added at different concentrations. After 10 minutes, the cells were activated with PHA (final concentration 2.5 μg/mL) and incubated for 20 hours at 37° C. under CO2. The final volume was 200 μL. Following incubation, the cells were centrifuged and the supernatants collected and stored at −70° C. prior to assaying for IL-2 production. A commercial ELISA kit (IL-2 Eli-pair, Diaclone Research, Besancon, France) was used to detect production of IL-2, from which dose response curves were obtained. The IC50 value was calculated as the concentration at which 50% of maximum IL-2 production after stimulation was inhibited versus a non-stimulation control.

[4] = Solubility in simulated gastric fluids; assay type: physicochemical
From the text: Solubility in Simulated Gastric Fluids

Compound CC1=C(c2ccc(NC(=O)c3ccncc3F)cc2)CN(c2nccs2)CC1.Cl.Cl [3-fluoro-N-(4-(4-methyl-1-(thiazol-2-yl)-1,2,5,6-tetrahydropyridin-3-yl)phenyl)isonicotinamide dihydrochloride] has a bioavailability ([1]; in vivo, PO, 50 mg/kg, 0.5% MC, read-out: % F (oral bioavailability)) of 93.4%, an AUC(0-inf) ([1]; IV, 5 mg/kg, DRD formulation) of 37.6 µM·h and an AUC(0-t) ([1]; IV, 5 mg/kg, DRD formulation) of 37.5 µM·h. The Cmax ([1]; IV, 5 mg/kg, DRD formulation) was 34.6 µM, the Tmax ([1]; IV, 5 mg/kg, DRD formulation) was 0.083 h and the half-life ([1]; IV, 5 mg/kg, DRD formulation) was 1 h. It also gave an AUC(0-inf) ([1]; PO, 50 mg/kg, 0.5% MC) of 351 µM·h, an AUC(0-t) ([1]; PO, 50 mg/kg, 0.5% MC) of 348 µM·h and a Cmax ([1]; PO, 50 mg/kg, 0.5% MC) of 43.5 µM. The Tmax ([1]; PO, 50 mg/kg, 0.5% MC) was 2 h, the half-life ([1]; PO, 50 mg/kg, 0.5% MC) was 3.2 h and the solubility ([2]; dihydrochloride salt) was > 12000 µg/mL.

In the case of CC1=C(c2ccc(NC(=O)c3ccncc3F)cc2)CN(c2nccs2)CC1 [Citrate, 3-fluoro-N-(4-(4-methyl-1-(thiazol-2-yl)-1,2,5,6-tetrahydropyridin-3-yl)phenyl)isonicotinamide], the “Water Solubility” value [2] is reported as 1190 µg/mL.

For CC1=C(c2ccc(NC(=O)c3c(F)cncc3F)cc2)CN(c2nccs2)CC1 [Compound 32, 3,5-difluoro-N-(4-(4-methyl-1-(thiazol-2-yl)-1,2,5,6-tetrahydropyridin-3-yl)phenyl)isonicotinamide], the IC50 [3] was ≤ 0.035 µM and the solubility [4] was 150 µM (≈ 61.9 µg/mL).

CC1=C(c2cnc(NC(=O)c3ccccc3F)cn2)CN(c2nnn(C)n2)CC1 [Compound 33, 2-fluoro-N-(5-(4-methyl-1-(2-methyl-2H-tetrazol-5-yl)-1,2,5,6-tetrahydropyridin-3-yl)pyrazin-2-yl)benzamide] showed an IC50 [3] of 0.075 to 0.15 µM and a solubility [4] of 150 µM (≈ 59.2 µg/mL).

For CC1=C(c2ccc(NC(=O)c3ccncc3F)cc2)CN(c2nccs2)CC1 [Compound H2SO4, 3-fluoro-N-(4-(4-methyl-1-(thiazol-2-yl)-1,2,5,6-tetrahydropyridin-3-yl)phenyl)isonicotinamide], the “Water Solubility” value [2] was 12690 µg/mL.

With CC1=C(c2ccc(NC(=O)c3ccncc3F)cc2)CN(c2nccs2)CC1 [HBr, 3-fluoro-N-(4-(4-methyl-1-(thiazol-2-yl)-1,2,5,6-tetrahydropyridin-3-yl)phenyl)isonicotinamide] the “Water Solubility” value [2] was 11560 µg/mL.

For CC1=C(c2ccc(NC(=O)c3ccncc3F)cc2)CN(c2nccs2)CC1 [Succinate, 3-fluoro-N-(4-(4-methyl-1-(thiazol-2-yl)-1,2,5,6-tetrahydropyridin-3-yl)phenyl)isonicotinamide], the “Water Solubility” value [2] was 360 µg/mL.

With CC1=C(c2ccc(NC(=O)c3ccncc3F)cc2)CN(c2nccs2)CC1 [Tartrate, 3-fluoro-N-(4-(4-methyl-1-(thiazol-2-yl)-1,2,5,6-tetrahydropyridin-3-yl)phenyl)isonicotinamide] the “Water Solubility” value [2] was 1340 µg/mL.

Reference: patent publication US20080207641A1 (Synta Pharmaceuticals Corp., priority 2006, published 2008)
